Reference: BindingDB's records for doi:10.1002/(SICI)1098-2396(199702)25:2 (University of Toronto, 1997)

Target: D(2) dopamine receptor (Mus musculus, UniProt P61168)
Sequence (P61168 whole entry): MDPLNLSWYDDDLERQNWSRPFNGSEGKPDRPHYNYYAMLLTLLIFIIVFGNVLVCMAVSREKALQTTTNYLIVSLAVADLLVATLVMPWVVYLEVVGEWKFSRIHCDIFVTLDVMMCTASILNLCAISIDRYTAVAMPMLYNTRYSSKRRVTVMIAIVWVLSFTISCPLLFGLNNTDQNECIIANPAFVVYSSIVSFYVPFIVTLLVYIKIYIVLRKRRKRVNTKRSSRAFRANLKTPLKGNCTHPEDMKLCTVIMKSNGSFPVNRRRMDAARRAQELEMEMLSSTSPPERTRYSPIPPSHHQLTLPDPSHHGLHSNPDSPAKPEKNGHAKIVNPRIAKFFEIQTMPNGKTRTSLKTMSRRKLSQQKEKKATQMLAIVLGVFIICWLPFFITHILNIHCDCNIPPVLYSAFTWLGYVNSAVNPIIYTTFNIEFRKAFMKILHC

| Ki [nM] | SMILES |
| --- | --- |
| 1060 | CCN1CCC[C@@H]1CNC(=O)c1cc(S(N)(=O)=O)ccc1OC [Sulpiride-R] |
| 1470 | CCN1CCC[C@H]1CNC(=O)c1cc(S(N)(=O)=O)ccc1OC [Sulpiride-S] |
